{"source": "ChEMBL document CHEMBL1201862", "about": "“PubChem BioAssay data set” (2004)", "key": {"[1]": {"molecular_target": "T1, Calpain-2 catalytic subunit (Sus scrofa, UniProt P43367)", "T1 sequence (P43367 whole entry)": "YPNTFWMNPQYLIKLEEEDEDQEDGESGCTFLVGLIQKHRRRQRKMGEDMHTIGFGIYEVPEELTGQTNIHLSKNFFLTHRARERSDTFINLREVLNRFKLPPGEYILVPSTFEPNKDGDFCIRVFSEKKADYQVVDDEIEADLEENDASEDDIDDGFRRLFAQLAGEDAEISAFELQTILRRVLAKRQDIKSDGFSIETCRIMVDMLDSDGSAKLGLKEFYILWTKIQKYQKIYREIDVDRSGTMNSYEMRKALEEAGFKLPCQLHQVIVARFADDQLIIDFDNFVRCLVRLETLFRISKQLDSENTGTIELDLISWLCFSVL", "test": "pig calpain II inhibitor potency, dose response, biochemical, fluorogenic peptide substrate (AID 1420)", "type": "functional"}, "[2]": {"test": "growth suppression of PTEN-null colon cells, dose response, cell-based, HCT116 PTEN knockout (AID 1047);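 further: HCT116 colon tumor cells with PTEN knocked out; cells exposed to compound for 60 hours before readout; potency for loss of cell viability measured by luminescence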", "type": "functional"}, "[3]": {"test": "growth suppression of beta-catenin-knockout colon cells, dose response, cell-based, HCT116, human colon tumor (AID 1045);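 further: HCT116 colon tumor cells with beta catenin knocked out; cells exposed to compound for 60 hours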", "type": "functional"}, "[4]": {"molecular_target": "Induced myeloid leukemia cell differentiation protein Mcl-1 (Homo sapiens, UniProt Q07820)", "sequence (Q07820 whole entry)": "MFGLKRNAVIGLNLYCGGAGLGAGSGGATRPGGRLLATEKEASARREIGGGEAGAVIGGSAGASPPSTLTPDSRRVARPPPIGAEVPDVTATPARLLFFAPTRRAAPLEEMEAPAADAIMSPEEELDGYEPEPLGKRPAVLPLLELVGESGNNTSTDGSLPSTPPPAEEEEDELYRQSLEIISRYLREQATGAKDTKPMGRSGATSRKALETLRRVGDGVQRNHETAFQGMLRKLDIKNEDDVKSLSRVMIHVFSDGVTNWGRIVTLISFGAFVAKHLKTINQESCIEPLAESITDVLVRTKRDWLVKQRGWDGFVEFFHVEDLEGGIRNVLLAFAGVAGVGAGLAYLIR", "type": "functional"}, "Caspase-3": {"molecular_target": "T2, Caspase-3 (Homo sapiens, UniProt P42574)", "T2 sequence (P42574 whole entry)": "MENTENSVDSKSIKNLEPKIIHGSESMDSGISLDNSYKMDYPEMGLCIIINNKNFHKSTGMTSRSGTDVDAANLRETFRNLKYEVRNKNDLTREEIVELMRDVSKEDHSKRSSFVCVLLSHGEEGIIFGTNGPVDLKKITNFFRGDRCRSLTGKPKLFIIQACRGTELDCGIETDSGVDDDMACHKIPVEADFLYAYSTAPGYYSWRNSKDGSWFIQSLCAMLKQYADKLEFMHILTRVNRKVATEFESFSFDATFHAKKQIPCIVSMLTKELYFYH", "type": "functional"}, "[5]": {"molecular_target": "T3, Sentrin-specific protease 7 (Homo sapiens, UniProt Q9BQF6)", "T3 sequence (Q9BQF6 whole entry)": "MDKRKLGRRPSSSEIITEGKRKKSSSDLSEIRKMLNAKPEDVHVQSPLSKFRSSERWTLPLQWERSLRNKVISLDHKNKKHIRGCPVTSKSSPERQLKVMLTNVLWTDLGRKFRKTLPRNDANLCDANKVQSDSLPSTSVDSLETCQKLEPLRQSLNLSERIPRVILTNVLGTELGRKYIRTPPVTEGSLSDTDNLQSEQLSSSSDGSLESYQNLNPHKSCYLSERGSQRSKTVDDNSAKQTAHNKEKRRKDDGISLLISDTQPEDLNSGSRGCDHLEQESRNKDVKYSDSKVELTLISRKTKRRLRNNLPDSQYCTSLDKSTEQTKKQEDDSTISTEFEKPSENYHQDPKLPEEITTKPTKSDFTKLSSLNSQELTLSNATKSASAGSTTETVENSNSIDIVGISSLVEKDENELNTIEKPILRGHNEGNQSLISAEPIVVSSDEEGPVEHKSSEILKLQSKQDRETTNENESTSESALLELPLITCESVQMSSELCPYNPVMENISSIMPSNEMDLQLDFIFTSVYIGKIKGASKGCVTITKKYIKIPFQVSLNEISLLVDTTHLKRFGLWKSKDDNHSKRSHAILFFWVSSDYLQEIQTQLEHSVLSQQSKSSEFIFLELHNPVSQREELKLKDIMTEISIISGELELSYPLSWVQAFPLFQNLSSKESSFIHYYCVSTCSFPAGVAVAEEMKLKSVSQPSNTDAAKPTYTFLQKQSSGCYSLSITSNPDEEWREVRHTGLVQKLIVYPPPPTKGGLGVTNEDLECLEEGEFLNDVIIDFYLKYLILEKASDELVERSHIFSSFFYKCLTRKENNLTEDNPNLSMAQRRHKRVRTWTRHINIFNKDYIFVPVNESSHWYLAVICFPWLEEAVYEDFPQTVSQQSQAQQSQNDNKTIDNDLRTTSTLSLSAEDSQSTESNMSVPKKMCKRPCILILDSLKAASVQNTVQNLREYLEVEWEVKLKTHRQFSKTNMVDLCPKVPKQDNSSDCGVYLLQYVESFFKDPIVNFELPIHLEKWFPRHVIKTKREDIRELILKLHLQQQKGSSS", "type": "functional"}, "[6]": {"molecular_target": "T4, Sentrin-specific protease 6 (Homo sapiens, UniProt Q9GZR1)", "T4 sequence (Q9GZR1 whole entry)": "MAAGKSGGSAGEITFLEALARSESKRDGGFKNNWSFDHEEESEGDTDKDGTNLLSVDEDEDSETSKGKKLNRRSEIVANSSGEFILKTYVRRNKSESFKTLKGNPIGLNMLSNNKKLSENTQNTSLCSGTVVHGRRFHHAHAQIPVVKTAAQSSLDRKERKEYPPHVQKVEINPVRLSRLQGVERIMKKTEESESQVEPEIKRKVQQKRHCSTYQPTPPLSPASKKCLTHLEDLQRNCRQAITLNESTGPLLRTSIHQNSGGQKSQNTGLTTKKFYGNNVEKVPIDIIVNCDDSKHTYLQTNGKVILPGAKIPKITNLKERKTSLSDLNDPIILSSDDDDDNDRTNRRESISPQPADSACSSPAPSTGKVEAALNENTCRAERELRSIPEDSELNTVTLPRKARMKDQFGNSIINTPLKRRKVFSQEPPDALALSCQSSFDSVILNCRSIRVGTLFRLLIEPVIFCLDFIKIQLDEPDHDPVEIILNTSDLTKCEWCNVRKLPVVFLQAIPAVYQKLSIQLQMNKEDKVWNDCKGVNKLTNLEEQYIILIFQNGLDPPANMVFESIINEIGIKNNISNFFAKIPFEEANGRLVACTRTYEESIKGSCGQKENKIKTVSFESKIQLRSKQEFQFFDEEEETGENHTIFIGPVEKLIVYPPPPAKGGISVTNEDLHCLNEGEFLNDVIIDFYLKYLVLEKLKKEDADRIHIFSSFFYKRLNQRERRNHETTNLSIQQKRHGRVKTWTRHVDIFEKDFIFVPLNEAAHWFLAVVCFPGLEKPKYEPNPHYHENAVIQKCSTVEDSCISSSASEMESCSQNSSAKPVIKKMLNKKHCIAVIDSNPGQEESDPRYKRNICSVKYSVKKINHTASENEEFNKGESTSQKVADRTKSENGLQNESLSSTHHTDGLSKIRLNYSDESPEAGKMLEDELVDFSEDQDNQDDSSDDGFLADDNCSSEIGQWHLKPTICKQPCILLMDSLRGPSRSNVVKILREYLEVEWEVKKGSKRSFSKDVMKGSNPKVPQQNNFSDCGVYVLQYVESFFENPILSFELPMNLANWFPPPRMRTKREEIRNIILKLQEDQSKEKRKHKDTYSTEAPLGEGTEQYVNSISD", "type": "functional"}, "[7]": {"molecular_target": "T5, Sentrin-specific protease 8 (Homo sapiens, UniProt Q96LD8)", "T5 sequence (Q96LD8 whole entry)": "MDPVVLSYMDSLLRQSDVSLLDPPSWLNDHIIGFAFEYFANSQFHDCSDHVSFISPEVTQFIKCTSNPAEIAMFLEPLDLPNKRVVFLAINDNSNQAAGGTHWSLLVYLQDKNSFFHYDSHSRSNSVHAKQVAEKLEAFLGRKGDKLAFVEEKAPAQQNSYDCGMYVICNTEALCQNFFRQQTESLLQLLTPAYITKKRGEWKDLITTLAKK", "type": "functional"}, "Caspase-6": {"molecular_target": "T6, Caspase-6 (Homo sapiens, UniProt P55212)", "T6 sequence (P55212 whole entry)": "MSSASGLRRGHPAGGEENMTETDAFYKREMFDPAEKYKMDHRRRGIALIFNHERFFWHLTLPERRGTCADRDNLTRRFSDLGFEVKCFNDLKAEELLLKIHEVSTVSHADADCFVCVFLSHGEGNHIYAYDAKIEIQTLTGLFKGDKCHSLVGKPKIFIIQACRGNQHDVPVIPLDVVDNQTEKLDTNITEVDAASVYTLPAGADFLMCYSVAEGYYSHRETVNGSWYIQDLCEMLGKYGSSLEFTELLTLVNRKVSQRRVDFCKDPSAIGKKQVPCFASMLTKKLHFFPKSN", "test": "human caspase-6 inhibitors, dose response, biochemical, VEID-R110 fluorescence, cherry-pick (AID 720632)"}, "BJ [8]": {"system": "BJ", "test": "cytotoxicity toward BJ-TERT fibroblasts, dose response, cell-based, RAS-independent, luminescence (AID 1933)", "type": "functional", "settings": "Homo sapiens"}, "BJ [9]": {"system": "BJ", "test": "cells", "type": "functional, cell-based", "settings": "Homo sapiens"}, "BJ [10]": {"system": "BJ", "test": "cytotoxicity toward BJ-TERT-LT-ST fibroblasts, dose response, cell-based, RAS-independent, luminescence (AID 1935);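 further: BJ fibroblasts immortalized with TERT plus LT and ST oncogenes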", "type": "functional", "settings": "Homo sapiens"}, "[11]": {"test": "cytotoxicity toward DRD oncogenic fibroblasts, dose response, cell-based, non-viral oncogenic, luminescence (AID 1934)", "type": "functional", "settings": "Homo sapiens"}, "Prothrombin": {"molecular_target": "Prothrombin (Homo sapiens, UniProt P00734)", "test": "Thrombin 1536 HTS Dose Response Confirmation. [Related pubchem assays: 1046 (Thrombin 1536 HTS; hits were confirmed in this assay)]", "type": "functional"}}, "note": "Activity calls are given as the source filed them."}
{"smiles": "COc1cc(-n2c(=O)c3ccccc3n(Cc3cccc(C)c3)c2=O)cc(OC)c1OC", "values": [{"measurement": "IC50", "setting": "[1]", "result": "19.3 µM (active)"}]}
{"smiles": "Oc1[nH]c2ccccc2c1N=Nc1nc2ccccc2s1", "values": [{"measurement": "EC50", "setting": "[2]", "result": "26.5 µM (active)"}, {"measurement": "EC50", "setting": "[3]", "result": "32.3 µM (active)"}, {"measurement": "IC50", "setting": "[4]", "result": "3.84 µM (active)"}, {"measurement": "IC50", "setting": "Caspase-3", "result": "27.6 µM (active)"}, {"measurement": "IC50", "setting": "[5]", "result": "4.3 µM (active)"}, {"measurement": "IC50", "setting": "[6]", "result": "66.4 µM (active)"}, {"measurement": "IC50", "setting": "[7]", "result": "> 100 µM (inactive)"}]}
{"smiles": "Nc1cc2cccnc2cc1Cl", "values": [{"measurement": "AC50", "setting": "Caspase-6", "result": "25.6 µM (active)"}]}
{"smiles": "OC1=C2C(=Nc3ccc4ncccc4c3C2c2ccc(O)c(O)c2)CCC1", "note": "(stereo not given)", "values": [{"measurement": "IC50", "setting": "[4]", "result": "4.38 µM (active)"}]}
{"smiles": "COc1ccc(/C=N/Nc2nncc3ccccc23)cc1", "values": [{"measurement": "EC50", "setting": "BJ [8]", "result": "8.72 µM (active)"}, {"measurement": "EC50", "setting": "BJ [9]", "result": "9.05 µM (active)"}, {"measurement": "EC50", "setting": "BJ [10]", "result": "18.6 µM (active)"}, {"measurement": "EC50", "setting": "[11]", "result": "7.41 µM (active)"}]}
{"smiles": "Cn1c(N)c(C(=O)COC(=O)C2CCC(C(C)(C)C)CC2)c(=O)n(C)c1=O", "note": "(stereo not given)", "values": [{"measurement": "IC50", "setting": "[1]", "result": "10.4 µM (active)"}]}
{"smiles": "CC(C)C(=O)n1nc(-c2cccnc2)nc1NCc1cccs1", "values": [{"measurement": "IC50", "setting": "Prothrombin", "result": "0.006 µM (active)"}]}
{"smiles": "O=C(COC(=O)Cc1ccccc1)Nc1cc(S(=O)(=O)N2CCCCC2)ccc1Cl", "values": [{"measurement": "AC50", "setting": "Caspase-6", "result": "38.3 µM (active)"}]}
{"smiles": "COc1ccc(C(=O)Nc2cccc(-c3cc4ccccc4oc3=O)c2)cc1[N+](=O)[O-]", "values": [{"measurement": "IC50", "setting": "[1]", "result": "12.3 µM (not active)"}]}
{"smiles": "C/C(=N\\OCC(=O)NC12CC3CC(CC(C3)C1)C2)c1cc2ccccc2o1", "values": [{"measurement": "IC50", "setting": "[1]", "result": "8.83 µM (not active)"}]}
{"smiles": "COc1cccc(NC(=S)N(CCCN2CCCC2)Cc2ccco2)c1", "values": [{"measurement": "IC50", "setting": "Prothrombin", "result": "> 50 µM (inconclusive)"}]}
